According to patent publication EP2886536A1 (priority 2013, dated 2015):
Structures can show the parent of a compound that is named as a salt.

Columns and labels:
SK-Mel3 = experiment: cells; assay type: cell-based; details: Homo sapiens, SK-MEL3, 96 h, read-out: IC50 values
HEL 92.1.7 = experiment: cells; assay type: cell-based; details: Homo sapiens, HEL 92.1.7, 96 h, read-out: IC50 values
Jurkat = experiment: cells; assay type: cell-based; details: Homo sapiens, 96 h, read-out: IC50 values
U-937 = experiment: cells; assay type: cell-based; details: Homo sapiens, U-937, 96 h, read-out: IC50 values
Capan-1 = experiment: cells; assay type: cell-based; details: Homo sapiens, CAPAN-1, 96 h, read-out: IC50 values
LnCap clone FGC = experiment: cells; assay type: cell-based; details: Homo sapiens, 96 h, read-out: IC50 values
NCl-H460 = experiment: cells; assay type: cell-based; details: 96 h, read-out: IC50 values
HT-29 = experiment: cells; assay type: cell-based; details: Homo sapiens, HT-29, 96 h, read-out: IC50 values
MG-63 = experiment: cells; assay type: cell-based; details: Homo sapiens, MG-63, 96 h, read-out: IC50 values
SK-ES1 = experiment: cells; assay type: cell-based; details: Homo sapiens, SK-ES1, 96 h, read-out: IC50 values
physchem = details: buffer, pH 7.2
in vitro [1] = details: mouse, plasma
in vitro [2] = details: human, plasma

Row | Structure (SMILES) | IC50 (SK-Mel3) | IC50 (HEL 92.1.7) | IC50 (Jurkat) | IC50 (U-937) | IC50 (Capan-1) | IC50 (LnCap clone FGC) | IC50 (NCl-H460) | IC50 (HT-29) | IC50 (MG-63) | IC50 (SK-ES1) | half-life (physchem) | half-life (in vitro [1]) | half-life (in vitro [2])
1 | Cn1c(CCCC(=O)O)nc2cc(N(CCCl)CCCl)ccc21 [bendamustine-HCl, 4-{5-[bis(2-chloroethyl)amino]-1-methyl-1H-benzimidazol-2-yl}butanoic acid, reference compound] | > 100 µM | 84 ± 7.7 µM | 42.6 ± 5.6 µM | 91.9 ± 16.4 µM | 25.2 ± 5.4 µM | 71.6 ± 5.4 µM | 89.5 ± 10.4 µM | > 100 µM | 55 ± 3.3 µM | 11 ± 1.6 µM | 10.8 ± 2.9 min | 35 ± 2.2 min | 131 ± 10.2 min
2 | CCOC(=O)CCCc1nc2ccc(N(CCCl)CCCl)cc2n1C [iso-bendamustine ethyl ester, ethyl 4-{6-[bis(2-chloroethyl)amino]-1-methyl-1H-benzimidazol-2-yl}butanoate] | 11.7 ± 2.5 µM | 3.5 ± 0.3 µM | 3.9 ± 0.3 µM | 1.6 ± 0.03 µM | 0.91 ± 0.15 µM | 1.5 ± 0.34 µM | 5.4 ± 0.2 µM | 11 ± 1.1 µM | 1.9 ± 0.1 µM | 0.24 ± 0.04 µM | 15.3 ± 3.8 min | < 2 min | 141 ± 6.3 min
3 | Cl.Cn1c(CCCC(=O)O)nc2ccc(N(CCCl)CCCl)cc21 [iso-bendamustine-HCl, 4-{6-[bis(2-chloroethyl)amino]-1-methyl-1H-benzimidazol-2-yl)butanoic acid hydrochloride] | > 100 µM | 76.5 ± 4.5 µM | 59.5 ± 4 µM | 59.8 ± 5.2 µM | 24.6 ± 4.4 µM | 18.9 ± 2.6 µM | > 100 µM | > 100 µM | 50.1 ± 5.5 µM | 9.6 ± 1.5 µM | 11.6 ± 1.9 min | 60.5 ± 2.7 min | 83.8 ± 9.3 min
